Experimental data reported in patent US8808760B2, “Extract from palm leaves and a method for producing the same” (Universiti Putra Malaysia, priority 2007, dated 2014).

Key:
[1] = test system: SHR (spontaneous/genetically hypertensive animals); test: Erythrocyte antioxidant enzymes (SOD, GSH-Px, CAT), SHR; assay type: in vivo, rats
Excerpt: SOD, GSH-Px, and CAT is the first line of antioxidative enzyme defense against oxidative stress, converting reactive oxygen to hydrogen peroxide and water. SOD, GSH-Px, and CAT […] activity indicate […] oxidative stress in hypertensive animals supplemented with oil palm leaves extract.

[2] = test system: SHR (spontaneously hypertensive rats); test: Serum nitric oxide, SHR; assay type: in vivo; parameters: unit not given here
normotensive animals [3] = test: Morphology (body, kidney, heart weight), normotensive rats; assay type: in vivo; conditions: mean ± SEM
Excerpt: (§1) The organ protective properties of the palm leaves extract and palm leaves functional ingredients on heart, and kidneys are shown in the morphology Table 4 below. […] Kidney/BW were similar in all groups. […] However, in L-NAME+captopril rats had lower Heart/BW ratio versus L-NAME.

normotensive rats = test: Serum nitric oxide, normotensive rats; assay type: in vivo; parameters: unit not given here
[4] = test system: SHR (spontaneous/genetically hypertensive animals); test: Organ antioxidant enzymes (kidney, heart, brain), SHR; assay type: in vivo, rats
Excerpt: SOD, GSH-Px, and CAT is the first line of antioxidative enzyme defense against oxidative stress, converting reactive oxygen to hydrogen peroxide and water.

L-NAME rats = test: Serum nitric oxide, L-NAME rats; assay type: in vivo; parameters: unit not given here
normotensive animals [5] = test: Erythrocyte antioxidant enzymes (SOD, GSH-Px, CAT), normotensive animals; assay type: in vivo, rats
[6] = test system: SHR (spontaneously/genetically hypertensive rats); test: Morphology (body, kidney, heart weight), SHR; assay type: in vivo; conditions: mean ± SEM
[7] = test system: L-NAME induced hypertensive rats; test: Morphology (body, kidney, heart weight), L-NAME rats; assay type: in vivo; conditions: mean ± SEM
Excerpt: as §1

Q: Which results are given for C[C@H](CS)C(=O)N1CCC[C@H]1C(=O)O [Captopril, captopril]?
A: Erythrocyte Catalase ([1]; Week 0): 0.019 ± 0.0007 k/ml; Erythrocyte CuZn-SOD ([1]; Week 0): 0.019 ± 0.0012 U/ml; Erythrocyte Glutathione Peroxidase ([1]; Week 0): 31.47 ± 0.94; Erythrocyte Catalase ([1]; Week 6): 0.017 ± 0.0003 k/ml; Erythrocyte CuZn-SOD ([1]; Week 6): 0.009 ± 0.0012 U/ml; Erythrocyte Glutathione Peroxidase ([1]; Week 6): 12.69 ± 2.47; Erythrocyte Catalase ([1]; Week 8): 0.017 ± 0.0004 k/ml; Erythrocyte CuZn-SOD ([1]; Week 8): 0.011 ± 0.0004 U/ml; Erythrocyte Glutathione Peroxidase ([1]; Week 8): 28.77 ± 2.05; Erythrocyte Catalase ([1]; Week 12): 0.016 ± 0.0003 k/ml; Erythrocyte CuZn-SOD ([1]; Week 12): 0.012 ± 0.0007 U/ml; Erythrocyte Glutathione Peroxidase ([1]; Week 12): 34.63 ± 2.2; nitric oxide values measured in serum ([2]; Week 0): 0.230 ± 0.02; nitric oxide values measured in serum ([2]; Week 6): 0.425 ± 0.05; nitric oxide values measured in serum ([2]; Week 8): 0.438 ± 0.08; nitric oxide values measured in serum ([2]; Week 12): 0.572 ± 0.02 +; Final body weight (normotensive animals [3]): 291.4 ± 8.56 g; Heart (normotensive animals [3]): 1.02 ± 0.04 g; Heart/Body weight (normotensive animals [3]): 3.558 ± 0.0002 mg/g; Kidney (normotensive animals [3]): 2.140 ± 0.07 g; Kidney/Body Weight (normotensive animals [3]): 7.370 ± 0.0003 mg/g; nitric oxide values measured in serum (normotensive rats; Week 0): 0.381 ± 0.023; nitric oxide values measured in serum (normotensive rats; Week 6): 0.573 ± 0.024; nitric oxide values measured in serum (normotensive rats; Week 8): 0.455 ± 0.060; nitric oxide values measured in serum (normotensive rats; Week 12): 0.525 ± 0.071; Organ Catalase ([4]; Heart): 4.08 ± 0.458 k/mg protein; Organ CuZn-SOD ([4]; Heart): 0.78 ± 0.301 U/mg protein; Organ GPx ([4]; Heart): 3.20 ± 0.23 U/mg protein; Organ Catalase ([4]; Kidney): 25.96 ± 2.04 k/mg protein; Organ CuZn-SOD ([4]; Kidney): 0.80 ± 0.199 U/mg protein; Organ GPx ([4]; Kidney): 2.02 ± 0.184 U/mg protein; Organ Catalase ([4]; brain): 1.96 ± 0.27 k/mg protein; Organ CuZn-SOD ([4]; brain): 1.26 ± 0.097 U/mg protein; Organ GPx ([4]; brain): 2.87 ± 0.360 U/mg protein; nitric oxide values measured in serum (L-NAME rats; Week 0): 0.402 ± 0.008; nitric oxide values measured in serum (L-NAME rats; Week 6): 0.585 ± 0.082; nitric oxide values measured in serum (L-NAME rats; Week 8): 0.742 ± 0.123; nitric oxide values measured in serum (L-NAME rats; Week 12): 0.44 ± 0.072; Erythrocyte Catalase (normotensive animals [5]; Week 0): 0.014 ± 0.0006 k/ml; Erythrocyte CuZn-SOD (normotensive animals [5]; Week 0): 0.014 ± 0.0010 U/ml; Erythrocyte Glutathione Peroxidase (normotensive animals [5]; Week 0): 16.5 ± 0.76; Erythrocyte Catalase (normotensive animals [5]; Week 6): 0.013 ± 0.0003 k/ml; Erythrocyte CuZn-SOD (normotensive animals [5]; Week 6): 0.022 ± 0.0006 U/ml; Erythrocyte Glutathione Peroxidase (normotensive animals [5]; Week 6): 21.1 ± 5.05; Erythrocyte Catalase (normotensive animals [5]; Week 8): 0.014 ± 0.0005 k/ml; Erythrocyte CuZn-SOD (normotensive animals [5]; Week 8): 0.015 ± 0.0019 U/ml; Erythrocyte Glutathione Peroxidase (normotensive animals [5]; Week 8): 9.3 ± 1.24; Erythrocyte Catalase (normotensive animals [5]; Week 12): 0.013 ± 0.0008 k/ml; Erythrocyte CuZn-SOD (normotensive animals [5]; Week 12): 0.018 ± 0.0006 U/ml; Erythrocyte Glutathione Peroxidase (normotensive animals [5]; Week 12): 26.2 ± 6.90; Final body weight [6]: 259.09 ± 5.53 g; Heart [6]: 1.16 ± 0.07 g; Heart/Body weight [6]: 4.533 ± 0.0002 mg/g; Kidney [6]: 2.074 ± 0.09 g; Kidney/Body Weight [6]: 8.139 ± 0.0004 mg/g; Final body weight [7]: 296.4 ± 5.97 g; Heart [7]: 0.91 ± 0.07 g; Heart/Body weight [7]: 3.096 ± 0.0003 mg/g; Kidney [7]: 2.017 ± 0.07 g; Kidney/Body Weight [7]: 6.822 ± 0.0002 mg/g
